In patent publication US20250353835A1, “N-TETRAZOLYL ARYL UREA-BASED DERIVATIVES, PREPARATION METHOD THEREFOR, AND USE THEREOF” (Hangzhou Yirui Pharmaceutical Technology Co., Ltd, priority 2022, published 2025):

Columns and labels:
[1] = target: T1, human B1R (Homo sapiens, UniProt P46663); test: FLIPR calcium ion flux assay, inhibitory activity against human B1R; assay type: cell-based; conditions: HEK293 cells stably expressing human B1R; agonist [Lys-des-Arg9]-Bradykinin 4.6 nM (EC80); FLIPR method
T1 construct: host or cells: HEK293
T1 sequence (P46663 1-353): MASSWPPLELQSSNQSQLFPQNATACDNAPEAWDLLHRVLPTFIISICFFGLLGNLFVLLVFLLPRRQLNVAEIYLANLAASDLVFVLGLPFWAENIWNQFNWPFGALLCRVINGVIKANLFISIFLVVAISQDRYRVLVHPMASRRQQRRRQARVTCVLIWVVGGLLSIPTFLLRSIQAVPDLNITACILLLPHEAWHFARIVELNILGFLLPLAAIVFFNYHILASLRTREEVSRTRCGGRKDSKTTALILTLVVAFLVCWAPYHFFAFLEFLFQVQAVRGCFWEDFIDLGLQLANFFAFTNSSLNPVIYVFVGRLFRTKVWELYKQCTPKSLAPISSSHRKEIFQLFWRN
Method: The inhibitory activity of the compounds against human B1R and B2R channels was determined by calcium ion flux assay using fluorometric imaging plate reader (FLIPR method). See literatures of Lee, Chen et al. for the method. [Lee et al. 2008][Chen et al. 2011]
1. Cell culture: HEK293 recombinant cell lines (WuXi AppTec, Shanghai, China) stably expressing human B1R and B2R were cultured in DMEM (Invitrogen, Cat #11965) medium containing 10% calf serum (Excellbio, Cat #FSP500), 5 μg/ml Geneticin (Invitrogen, Cat #10131) and Penicillin/Streptomycin (Invitrogen, Cat #15140). The incubator conditions were 37° C. and ambient humidity containing 5% CO2.
2. Preparation of the cell assay plate: B1R and B2R cells were seeded in a 384-well assay plate (Greiner, Cat #781090) at a density of 20,000 cells per well (20 μl/well), and cultured overnight at 37° C. in an incubator with 5% CO2. The next day, Fluo-4 Direct™ Loading Buffer (containing 5 mM Probenicid) containing 2× (8 μM) Fluo-4 Direct (Invitrogen, Cat #F10471) was added to each of the wells. The cells were cultured at 37° C. for 50 min, and then culture for at the room temperature 10 min.
3. Preparation of the compound assay plate: The compound was dissolved in 100% DMSO to make a 30 mM stock solution and stored at −20° C. On the day of use, the stock solution of the compound was thawed at the room temperature. Each of the compounds was serially diluted at 1:5 in DMSO culture medium with a starting concentration of 30 μM for 9 concentration points on a 384-well plate. Each of compounds was diluted in duplicate for testing. [Des-Arg10]-HOE140 was used as a positive control compound, and diluted in the same manner with a starting concentration of 3 μM.
4. FLIPR assay: The cell assay plate was placed in a FLIPR instrument ([…]). The compounds in the compound assay plate were added to the corresponding wells on the cell assay plate (10 μL/well) using an automatic program. The calcium ion fluorescence signal was recorded to determine whether the compound may have agonist activity. After 10 minutes, a B1R agonist [Lys-des-Arg9]-Bradykinin2 (10 μL/well) with a final concentration of 4.6 nM (EC80) was added to each of the wells to stimulate the generation of intracellular calcium ion flux signals. The Ca^++-dependent fluorescence signal was continuously monitored at a wavelength of 538 nm to analyze the inhibitory activity of the compound.
5. Data analysis: The data was collected and analyzed by a FLIPR program. The inhibitory (or agonist) activity of the compound at each concentration was evaluated by the fluorescence peak. The IC50 values of the compounds were calculated using EXCEL and PRISM programs.

[2] = test system: rat model of diabetic retinopathy; test: Rat model of diabetic retinopathy (STZ); assay type: in vivo, Wistar rats; conditions: for retinal leukocyte stasis, Leukocyte count: Concanavalin A/FITC, 14 days after intravitreal injection, compounds 0.25%, dexamethasone 0.1%; for number of leukocyte stasis in the retina (fluorescent staining, FIG. 8; in words) / retinal vascular penetration in rats (fluorescent staining, FIG. 6; in words): intraocular injection, versus model group
Method: 3.1 Laboratory animals: SPF-grade male Wistar rats, weighed 180-220 g.
3.3 Animal modeling and grouping: After one week of adaptive feeding, 134 male Wistar rats (weighed 220-260 g) were administered 65 mg/kg of STZ by one-time intraperitoneal injection to prepare a rat model of type I diabetic. The rats were fasting but water was allowable overnight for 15 h. The formulated STZ solution was intraperitoneally injected according to body weight. After 1 h, the diet was resumed and blood glucose was measured at 72 h. The successfully modeled diabetic rats (120 rats) were selected for continued feeding, and randomly divided into the following 6 groups according to blood glucose (20 rats per group), plus a group of normal rats with no STZ injected as a negative control group.
3.4 Administration: The rats continued to be fed until blood glucose was measured once before administration. After blood glucose reached the standard, drugs were intravitreally injected, and indexs were subsequently tested after 14 days. Blood glucose was measured once before sampling.
3.5 Evans blue staining method (7 groups, 6 rats per group): Evans blue was intravenously injected. 2 hours later, normal saline was perfused into the left ventricle. The retina was taken to compare between the stained area and the unstained area to detect retinal vascular permeability.
3.6 Retinal leukocyte stasis detection method (7 groups, 6 rats per group): PBS was perfused into the left ventricle for 1 min to remove red blood cells and other substances. Concanavalin A (FITC (Sigma, C7642) was perfused (20 μg/ml in PBS, 5 mg/kg) to mark adherent leukocytes. 4% PFA was perfused for 4 min for fixation. 1% Albumin (Sigma, A6414) (in PBS) was perfused for 1 min, and then PBS was perfused for 2 min. The retina was taken for retinal wholemount. Thereafter, the stasis of leukocytes on the vascular endothelium was observed under a fluorescence microscope. […]

| Structure (SMILES) | IC50 [1] [µM] | retinal leukocyte stasis, Leukocyte count [2] | number of leukocyte stasis in the retina (fluorescent staining, FIG. 8; in words) [2] | retinal vascular penetration in rats (fluorescent staining, FIG. 6; in words) [2] |
| --- | --- | --- | --- | --- |
| COc1ccc(-c2c(F)cc(NC(=O)N3CCC(C(C)(C)C)CC3)cc2-c2nn[nH]n2)cc1OC [Compound 11, 4-(tert-butyl)-N-(2-fluoro-3′,4′-dimethoxy-6-(2H-tetrazol-5-yl)-[1,1′-biphenyl]-4-yl)piperidine-1-carboxamide] | 0.0146 | 7.20 ± 8.44 | significantly reduced | significantly reduced |
| COc1ccc(-c2ccc(NC(=O)Nc3ccc(C(F)(F)F)cc3)cc2-c2nn[nH]n2)cc1OC [Compound 60, 1-(3′,4′-dimethoxy-2-(2H-tetrazol-5-yl)-[1,1′-biphenyl]-4-yl)-3-(4-(trifluoromethyl)phenyl)urea] | 0.247 |  |  |  |
| COc1ccc(-c2ccc(NC(=O)N[C@H]3CC[C@@H](C)CC3)cc2-c2nn[nH]n2)cc1OC [Compound 61, 1-(3′,4′-dimethoxy-2-(2H-tetrazol-5-yl)-[1,1′-biphenyl]-4-yl)-3-(4-methylcyclohexyl)urea] | 0.0922 |  |  |  |
| COc1ccc(-c2ccc(NC(=O)N[C@H]3CC[C@H](C)CC3)cc2-c2nn[nH]n2)cc1OC [Compound 62, 1-(3′,4′-dimethoxy-2-(2H-tetrazol-5-yl)-[1,1′-biphenyl]-4-yl)-3-((trans)-4-methylcyclohexyl)urea] | 0.0602 |  |  |  |
| COc1ccc(Oc2ccc(NC(=O)N[C@H]3CC[C@@H](C)CC3)cc2-c2nn[nH]n2)cc1OC [Compound 63, 1-(4-(3,4-dimethoxyphenoxy)-3-(2H-tetrazol-5-yl)phenyl)-3-((cis)-4-methylcyclohexyl)urea] | 7.71 |  |  |  |
| COc1ccc(Oc2ccc(NC(=O)N[C@H]3CC[C@H](C)CC3)cc2-c2nn[nH]n2)cc1OC [Compound 64, 1-(4-(3,4-dimethoxyphenoxy)-3-(2H-tetrazol-5-yl)phenyl)-3-((trans)-4-methylcyclohexyl)urea] | 9.9 |  |  |  |
| COc1ccc(-c2ccc(NC(=O)N(C)[C@H]3CC[C@H](C(C)(C)C)CC3)cc2-c2nn[nH]n2)cc1OC [Compound 65, 1-((trans)-4-(tert-butyl)cyclohexyl)-3-(3′,4′-dimethoxy-2-(2H-tetrazol-5-yl)-[1,1′-biphenyl]-4-yl)-1-methylurea] | 0.0435 | 5.14 ± 1.20 | significantly reduced | significantly reduced |
| C[C@H]1CC[C@H](NC(=O)Nc2ccc(C3=CCOCC3)c(-c3nn[nH]n3)c2)CC1 [Compound 66, 1-(4-(3,6-dihydro-2H-pyran-4-yl)-3-(2H-tetrazol-5-yl)phenyl)-3-((trans)-4-methylcyclohexyl)urea] | 1.65 |  |  |  |
| C[C@H]1CC[C@@H](NC(=O)Nc2ccc(C3CCOCC3)c(-c3nn[nH]n3)c2)CC1 [Compound 67, 1-((cis)-4-methylcyclohexyl)-3-(4-(tetrahydro-2H-pyran-4-yl)-3-(2H-tetrazol-5-yl)phenyl)urea] | 13.3 |  |  |  |
| C[C@H]1CC[C@H](NC(=O)Nc2ccc(C3CCOCC3)c(-c3nn[nH]n3)c2)CC1 [Compound 68, 1-((trans)-4-methylcyclohexyl)-3-(4-(tetrahydro-2H-pyran-4-yl)-3-(2H-tetrazol-5-yl)phenyl)urea] | 7.49 |  |  |  |
| C[C@H]1CC[C@H](NC(=O)Nc2ccc(-c3ccc4c(c3)OCO4)c(-c3nn[nH]n3)c2)CC1 [Compound 69, 1-(4-(benzo[d][1,3]dioxolan-5-yl)-3-(2H-tetrazol-5-yl)phenyl)-3-((trans)-4-methylcyclohexyl)urea] | 4.91 |  |  |  |
| CC(C)(C)[C@H]1CC[C@@H](NC(=O)Nc2ccc(-c3ccc4c(c3)OCO4)c(-c3nn[nH]n3)c2)CC1 [Compound 70, 1-(4-(benzo[d][1,3]dioxolan-5-yl)-3-(2H-tetrazol-5-yl)phenyl)-3-((cis)-4-(tert-butyl)cyclohexyl)urea] | 0.303 |  |  |  |
| C[C@H]1CC[C@@H](NC(=O)Nc2ccc(OC3CCOCC3)c(-c3nn[nH]n3)c2)CC1 [Compound 72] | 12 |  |  |  |
| C[C@H]1CC[C@H](NC(=O)Nc2ccc(OC3CCOCC3)c(-c3nn[nH]n3)c2)CC1 [Compound 73] | 13.7 |  |  |  |
